Assay results reported in ChEMBL document CHEMBL4130388, “Recent advances of pyrazole-containing derivatives as anti-tubercular agents” (Eur J Med Chem, 2017).
pIC50: −log10 of the molar value. In brackets after ≈: the same amount, converted by molar mass.

What was measured:
[1] = tested on: Mycobacterium tuberculosis; test: Antitubercular activity against Mycobacterium tuberculosis H37Rv by broth dilution method; assay type: functional
[2] = tested on: Mycobacterium tuberculosis; test: Antitubercular activity against Mycobacterium tuberculosis; assay type: functional
[3] = tested on: Mycobacterium tuberculosis; test: Antitubercular activity against Mycobacterium tuberculosis H37Rv; assay type: functional
[4] = tested on: Mycobacterium tuberculosis; test: Antitubercular activity against Mycobacterium tuberculosis spec.210; assay type: functional
[5] = tested on: Mycobacterium tuberculosis; test: Antitubercular activity against Mycobacterium tuberculosis spec.192; assay type: functional
[6] = tested on: Mycobacterium tuberculosis; test: Antitubercular activity against Mycobacterium tuberculosis H37Rv by Lowensteine-Jensen method; assay type: functional
HepG2 = test: Cytotoxicity against human HepG2 cells; assay type: cell-based
[7] = tested on: Mycobacterium tuberculosis; test: Growth inhibition of Mycobacterium tuberculosis H37Rv at 62.5 ug/ml by broth dilution method relative to control; assay type: functional; conditions: read-out: GI
[8] = tested on: Mycobacterium tuberculosis; test: Potency index, ratio of pyrazinamide MIC to compound MIC for Mycobacterium tuberculosis; assay type: functional
[9] = tested on: Mycobacterium tuberculosis; test: Potency index, ratio of pyrazinamide MIC to compound MIC for Mycobacterium tuberculosis H37Rv; assay type: functional

Row | SMILES | MIC [3] | MIC [4] [µM] | MIC [5] [µM] | other results
1 | CCOC(=O)C1=C(C)NC(=O)NC1c1cn(-c2ccccc2)nc1-c1ccc([N+](=O)[O-])cc1 (stereo not drawn) |  |  |  | MIC [1]: 0.02 µg/mL (≈ 0.0447 µM)
2 | CCOC(=O)C1=C(C)NC(=O)NC1c1cn(-c2ccccc2)nc1-c1ccc(F)cc1 (stereo not drawn) |  |  |  | MIC [1]: 0.02 µg/mL (≈ 0.0476 µM)
3 | Nc1nc(-c2ccc(O)cc2)cc(-c2cn(-c3ccccc3)nc2-c2ccc(F)cc2)n1 |  |  |  | IC90 [2]: 0.88 µg/mL (≈ 2.08 µM)
4 | O=C(Nc1ccccc1)N1CCc2c(cnn2Cc2cn(-c3ccc(I)cc3)nn2)C1 | 24.7 to 200 µM | 24.7 to 200 (≈ 13 to 105 µg/mL) | 24.7 to 200 (≈ 13 to 105 µg/mL) | 
5 | O=C(Nc1ccccc1)N1CCc2c(cnn2Cc2cn(-c3ccccc3Br)nn2)C1 | 24.7 to 200 µM | 24.7 to 200 (≈ 11.8 to 95.7 µg/mL) | 24.7 to 200 (≈ 11.8 to 95.7 µg/mL) | 
6 | O=C(NCCCn1ncc2ccc([N+](=O)[O-])cc21)N1C(=O)C(Cl)C1c1cccc(Br)c1 (stereo not drawn) |  |  |  | MIC [6]: 6.25 to 50 µg/mL (≈ 12.3 to 98.7 µM)
7 | O=C(Nc1ccccc1)N1CCc2c(cnn2Cc2cn(-c3ccccc3)nn2)C1 | 24.7 to 200 µM | 24.7 to 200 (≈ 9.87 to 79.9 µg/mL) | 24.7 to 200 (≈ 9.87 to 79.9 µg/mL) | 
8 | O=C(Nc1ccccc1)N1CCc2c(cnn2Cc2cn(-c3cccc(Cl)c3)nn2)C1 | 24.7 to 200 µM | 24.7 to 200 (≈ 10.7 to 86.8 µg/mL) | 24.7 to 200 (≈ 10.7 to 86.8 µg/mL) | 
9 | O=C(NCCCn1ncc2ccc([N+](=O)[O-])cc21)N1C(=O)C(Cl)C1c1ccccc1 (stereo not drawn) |  |  |  | MIC [6]: 6.25 to 50 µg/mL (≈ 14.6 to 117 µM)
10 | CC1=NN(C(=O)c2cc(-c3ccc(Cl)cc3)n[nH]2)C(=O)/C1=N\Nc1ccc(F)cc1 | 0.35 µg/mL |  |  | pIC50 (HepG2): < 3.30
11 | COc1ccc(C2C(Cl)C(=O)N2C(=O)NCCCn2ncc3ccc([N+](=O)[O-])cc32)cc1 (stereo not drawn) |  |  |  | MIC [6]: 6.25 to 50 µg/mL (≈ 13.7 to 109 µM)
12 | Cc1nn(-c2ccccc2)c2c1C(c1cccc([N+](=O)[O-])c1)c1c(N)nc(=O)[nH]c1O2 (stereo not drawn) |  |  |  | inhibition of growth at 62.5 µg/mL [7]: 98%
13 | O=C(Nc1ccccc1)N1CCc2c(cnn2Cc2cn(-c3ccc(F)cc3)nn2)C1 | 24.7 to 200 µM | 24.7 to 200 (≈ 10.3 to 83.5 µg/mL) | 24.7 to 200 (≈ 10.3 to 83.5 µg/mL) | 
14 | CC1=NN(C(=O)c2cc(-c3ccc(Cl)cc3)n[nH]2)C(=O)/C1=N\Nc1ccc(Cl)cc1 | 0.6 µg/mL |  |  | pIC50 (HepG2): 3.51
15 | O=C(Nc1ccccc1)N1CCc2c(cnn2Cc2cn(-c3ccc(Cl)cc3)nn2)C1 | 24.7 to 200 µM | 24.7 to 200 (≈ 10.7 to 86.8 µg/mL) | 24.7 to 200 (≈ 10.7 to 86.8 µg/mL) | 
16 | O=C(NCCCn1ncc2ccc([N+](=O)[O-])cc21)N1C(=O)C(Cl)C1c1ccc(O)cc1 (stereo not drawn) |  |  |  | MIC [6]: 6.25 to 50 µg/mL (≈ 14.1 to 113 µM)

Row | SMILES | MIC [3] | MIC [4] [µM] | MIC [5] [µM] | other results
17 | O=C(Nc1ccccc1)N1CCc2c(cnn2Cc2cn(-c3ccccc3Cl)nn2)C1 | 24.7 to 200 µM | 24.7 to 200 (≈ 10.7 to 86.8 µg/mL) | 24.7 to 200 (≈ 10.7 to 86.8 µg/mL) | 
18 | O=C(NCCCn1ncc2ccc([N+](=O)[O-])cc21)N1C(=O)C(Cl)C1c1ccc([N+](=O)[O-])cc1 (stereo not drawn) |  |  |  | MIC [6]: 6.25 to 50 µg/mL (≈ 13.2 to 106 µM)
19 | O=C(Nc1ccccc1)N1CCc2c(cnn2Cc2cn(-c3ccc(Cl)cc3Cl)nn2)C1 | 24.7 to 200 µM | 24.7 to 200 (≈ 11.6 to 93.7 µg/mL) | 24.7 to 200 (≈ 11.6 to 93.7 µg/mL) | 
20 | O=C(Nc1ccccc1)N1CCc2c(cnn2Cc2cn(-c3ccc(F)c(Cl)c3)nn2)C1 | 24.7 to 200 µM | 24.7 to 200 (≈ 11.2 to 90.4 µg/mL) | 24.7 to 200 (≈ 11.2 to 90.4 µg/mL) | 
21 | O=C(NCCCn1ncc2ccc([N+](=O)[O-])cc21)N1C(=O)C(Cl)C1c1cccc(Cl)c1 (stereo not drawn) |  |  |  | MIC [6]: 6.25 to 50 µg/mL (≈ 13.5 to 108 µM)
22 | Cc1ccc(-n2cc(Cn3ncc4c3CCN(C(=O)Nc3ccccc3)C4)nn2)cc1 | 24.7 to 200 µM | 24.7 to 200 (≈ 10.2 to 82.7 µg/mL) | 24.7 to 200 (≈ 10.2 to 82.7 µg/mL) | 
23 | O=C(Nc1ccccc1)N1CCc2c(cnn2Cc2cn(-c3ccc(Br)c(OC(F)(F)F)c3)nn2)C1 | 24.7 to 200 µM | 24.7 to 200 (≈ 13.9 to 112 µg/mL) | 24.7 to 200 (≈ 13.9 to 112 µg/mL) | 
24 | COc1ccccc1C1C(Cl)C(=O)N1C(=O)NCCCn1ncc2ccc([N+](=O)[O-])cc21 (stereo not drawn) |  |  |  | MIC [6]: 6.25 to 50 µg/mL (≈ 13.7 to 109 µM)
25 | Fc1ccc(-c2nnc(-c3n[nH]cc3-c3ccc(Cl)cc3)o2)cc1 |  |  |  | MIC [2]: 25 µg/mL (≈ 73.4 µM); Ratio [8]: 4
26 | Cc1cc(-n2nc(C(=O)NCc3ccc(OC(F)(F)F)cc3)cc2-c2cccnc2)c2cccc(C(F)(F)F)c2n1 | 3.13 µg/mL |  |  | Ratio [9]: 16
27 | O=C(NCCCn1ncc2ccc([N+](=O)[O-])cc21)N1C(=O)C(Cl)C1c1ccccc1[N+](=O)[O-] (stereo not drawn) |  |  |  | MIC [6]: 6.25 to 50 µg/mL (≈ 13.2 to 106 µM)
28 | O=C(Nc1ccccc1)N1CCc2c(cnn2Cc2cn(-c3ccc([N+](=O)[O-])cc3)nn2)C1 | 24.7 to 200 µM | 24.7 to 200 (≈ 11 to 88.9 µg/mL) | 24.7 to 200 (≈ 11 to 88.9 µg/mL) | 
29 | O=C(Nc1ccccc1)N1CCc2c(cnn2Cc2cn(-c3ccccc3I)nn2)C1 | 24.7 to 200 µM | 24.7 to 200 (≈ 13 to 105 µg/mL) | 24.7 to 200 (≈ 13 to 105 µg/mL) | 
30 | COc1ccc(-n2cc(Cn3ncc4c3CCN(C(=O)Nc3ccccc3)C4)nn2)cc1OC | 24.7 to 200 µM | 24.7 to 200 (≈ 11.4 to 91.9 µg/mL) | 24.7 to 200 (≈ 11.4 to 91.9 µg/mL) | 
31 | O=C(NCCCn1ncc2ccc([N+](=O)[O-])cc21)N1C(=O)C(Cl)C1c1ccc(Br)cc1 (stereo not drawn) |  |  |  | MIC [6]: 6.25 to 50 µg/mL (≈ 12.3 to 98.7 µM)
